Laboratory results published in PMC12647645, “Structural interactions of BWC0977 with Klebsiella pneumoniae topoisomerase IV and biochemical basis of its broad-spectrum activity” (Communications Biology, 2025).
In brackets after ≈: the same amount, converted by molar mass. Several values for one entry are separate records, joined by “and”; a condition that tells them apart may be missing. Identical values can stand only once. Like-named read-outs stand apart in the source and are kept apart here.

Tests used:
[1] = target: E. coli GyrA S83L mutant gyrase (Escherichia coli, UniProt P0AES4+P0AES6, S83L); test: biochemical; assay type: biochemical; settings: for Gyrase supercoiling inhibition response: GyrA S83L gyrase
P. aeruginosa ATCC 27853 = settings: >4× MIC; cited from earlier work
A. baumannii ATCC 19606 [2] = test: MIC broth microdilution; assay type: cell-based; settings: Acinetobacter baumannii
E. coli gyrase = target: T1, E. coli gyrase (Escherichia coli, UniProt P0AES4+P0AES6); assay type: biochemical; settings: gyrase cleavage-complex assay
T1 construct: purchased Inspiralis
Procedure: Reactions were stopped by adding 3.8 μL of a stop solution containing 0.8 μL Proteinase K (20 mg/mL) and 3 μL SDS (2%), followed by incubation at 37 °C for 60 min. Afterward, 4 μL of STEB loading buffer was added, and samples were run on pre-stained 0.8% agarose gels containing 0.4 μg/mL ethidium bromide. […] The % nicked and linear DNA formed with varying compound concentrations was plotted for comparison.

A. baumannii ATCC 19606 [3] = test: In vitro spontaneous resistance frequency; assay type: cell-based
Procedure: (§1) Spontaneous resistance frequencies to BWC0977 were evaluated in E. coli ATCC 25922, P. aeruginosa ATCC 27853, and A. baumannii ATCC 19606. Mid-logarithmic phase cultures (~10^9 CFU/mL) were plated onto Luria-Bertani agar containing BWC0977 at 4×, 8×, and 16× the respective MICs. Plates were incubated at 37 °C for 24–36 h, and resistance frequencies were estimated by counting colony-forming units (CFUs) on the drug-containing plates. MICs of the isolated colonies were determined, and the gyrA, gyrB, parC, and parE genes were sequenced to assess for target-site mutations.

E. coli ATCC 25922 [4] = test: In vitro spontaneous resistance frequency; assay type: cell-based
Procedure: as §1

[5] = test system: E. coli MG1655 GyrA D82N, ParC WT; test: microbe, parasite or virus in culture; assay type: cell-based; settings: Escherichia coli
[6] = test system: A. baumannii ATCC 19606 resistant mutant colonies (mutant 1-5); test: microbe, parasite or virus in culture; assay type: cell-based; settings: Acinetobacter baumannii
A. baumannii BAA 2885 = test: microbe, parasite or virus in culture; assay type: cell-based; settings: Acinetobacter baumannii, BAA2885
[7] = test system: multidrug-resistant (MDR) Gram-negative bacteria, Gram-positive bacteria, anaerobes, and biothreat pathogens; settings: diverse global panel; cited from earlier work
[8] = test system: E. coli MG1655 GyrA WT, ParC R119K; test: microbe, parasite or virus in culture; assay type: cell-based; settings: Escherichia coli
E. coli ATCC 25922 [9] = test: MIC broth microdilution; assay type: cell-based; settings: Escherichia coli, ATCC25922
E. coli ATCC 25922 [10] = settings: >4× MIC; cited from earlier work
E. coli topoisomerase IV = target: T2, E. coli topoisomerase IV (Escherichia coli, UniProt P0AFI2+P20083); test: biochemical; assay type: biochemical
T2 construct: purchased Inspiralis

P. aeruginosa gyrase = P. aeruginosa gyrase (Pseudomonas aeruginosa, UniProt P48372+Q9I7C2); test: biochemical; settings: for Gyrase supercoiling inhibition response: P. aeruginosa gyrase
S. aureus ATCC 29213 = test: MIC broth microdilution; assay type: cell-based; settings: Staphylococcus aureus, ATCC29213
[11] = test system: E. coli MG1655 GyrA R121K, ParC WT; test: microbe, parasite or virus in culture; assay type: cell-based; settings: Escherichia coli

With `Cn1c(=O)ccc2ccc(F)c(CCNC[C@H]3CN(c4cnc5c(n4)NC(=O)CO5)C(=O)O3)c21` [BWC0977] the IC50 ([1]; Fig. 6, read-out: IC50 S83L gyrase supercoiling) was 3 nM, the “Gyrase supercoiling inhibition response” value ([1]; compound 0.0005 µM, source data Fig 6A, 0.0005 µM) was 7.40 and the “Gyrase supercoiling inhibition response” value ([1]; compound 0.0014 µM, source data Fig 6A, 0.0014 µM) was 20.69. The “Gyrase supercoiling inhibition response” value ([1]; compound 0.0041 µM, source data Fig 6A, 0.0041 µM) was 57.16, the “Gyrase supercoiling inhibition response” value ([1]; compound 0.012 µM, source data Fig 6A, 0.012 µM) was 82.23 and the “Gyrase supercoiling inhibition response” value ([1]; compound 0.037 µM, source data Fig 6A, 0.037 µM) was 88.47. For the same molecule, the “Gyrase supercoiling inhibition response” value ([1]; compound 0.111 µM, source data Fig 6A, 0.111 µM) was 97.88, the “Gyrase supercoiling inhibition response” value ([1]; compound 0.333 µM, source data Fig 6A, 0.333 µM) was 98.84 and the “Gyrase supercoiling inhibition response” value ([1]; compound 1 µM, source data Fig 6A, 1 µM) was 98.71. The “Gyrase supercoiling inhibition response” value ([1]; compound 3 µM, source data Fig 6A, 3 µM) was 96.44, the “potency shift relative to WT” value ([1]; quinolone-resistant S83L vs WT) was < 3 fold and the inhibition at 0.0014 µM ([1]; read-out: Gyrase supercoiling inhibition response, GyrA S83L gyrase, compound 0.0014 µM, source data Fig 6A) was 35%. The inhibition at 0.0041 µM ([1]; read-out: Gyrase supercoiling inhibition response, GyrA S83L gyrase, compound 0.0041 µM, source data Fig 6A) was 60.7%, the inhibition at 0.012 µM ([1]; read-out: Gyrase supercoiling inhibition response, GyrA S83L gyrase, compound 0.012 µM, source data Fig 6A) was 74.3% and the inhibition at 0.037 µM ([1]; read-out: Gyrase supercoiling inhibition response, GyrA S83L gyrase, compound 0.037 µM, source data Fig 6A) was 90.2%. The inhibition at 0.111 µM ([1]; read-out: Gyrase supercoiling inhibition response, GyrA S83L gyrase, compound 0.111 µM, source data Fig 6A) was 91%, the inhibition at 0.333 µM ([1]; read-out: Gyrase supercoiling inhibition response, GyrA S83L gyrase, compound 0.333 µM, source data Fig 6A) was 97.8% and the inhibition at 1 µM ([1]; read-out: Gyrase supercoiling inhibition response, GyrA S83L gyrase, compound 1 µM, source data Fig 6A) was 99.5%. The inhibition at 3 µM ([1]; read-out: Gyrase supercoiling inhibition response, GyrA S83L gyrase, compound 3 µM, source data Fig 6A) was 97.9%, the “resistant colonies on exposure” value (P. aeruginosa ATCC 27853) was “no resistant colonies” and the MIC (A. baumannii ATCC 19606 [2]; ATCC19606) was 0.125 µg/mL (≈ 0.267 µM). For the same molecule, the MIC90 (A. baumannii ATCC 19606 [2]; ATCC19606, read-out: MIC 90 in (μg/mL), A. baumannii ATCC 19606 (WT)) was 0.15 µg/mL (≈ 0.32 µM), the “type of DNA breaks induced” value (E. coli gyrase) was “single-strand DNA breaks” and the “number of resistant mutant colonies” value (A. baumannii ATCC 19606 [3]; 0.6 μg/mL (4× MIC)) was “five”. For the same molecule, the resistance frequency (A. baumannii ATCC 19606 [3]; 4× MIC) was “less than 1 × 10^−9”, the “MIC increase of resistant colonies” value (A. baumannii ATCC 19606 [3]; colonies selected at 4× MIC of the same compound) was “four-fold” and the resistance frequency (E. coli ATCC 25922 [4]; 4× MIC) was “less than 1 × 10^−9”. The “sensitivity of ciprofloxacin-resistant mutants (GyrA S83L or D87Y)” value (E. coli ATCC 25922 [4]; mutants selected with ciprofloxacin 0.05 μg/mL) was “remained sensitive”, the MIC [5] was 0.08 µg/mL (≈ 0.171 µM) and the MIC90 ([6]; ATCC19606, read-out: MIC 90 in (μg/mL), resistant mutant colony 1) was 0.6 µg/mL (≈ 1.28 µM). It also gave an MIC90 ([6]; ATCC19606, read-out: MIC 90 in (μg/mL), resistant mutant colony 2) of 0.07 µg/mL (≈ 0.149 µM), an MIC90 ([6]; ATCC19606, read-out: MIC 90 in (μg/mL), resistant mutant colony 3) of 0.07 µg/mL (≈ 0.149 µM) and an MIC90 ([6]; ATCC19606, read-out: MIC 90 in (μg/mL), resistant mutant colony 4) of 0.07 µg/mL (≈ 0.149 µM). The MIC90 ([6]; ATCC19606, read-out: MIC 90 in (μg/mL), resistant mutant colony 5) was 0.3 µg/mL (≈ 0.64 µM), the MIC (A. baumannii BAA 2885) was 0.5 µg/mL (≈ 1.07 µM) and the “minimum inhibitory concentration (MIC90) range” value [7] was 0.03 to 2 µg/mL. For the same molecule, the MIC [8] was 0.026 µg/mL (≈ 0.0555 µM), the MIC (E. coli ATCC 25922 [9]) was 0.06 µg/mL (≈ 0.128 µM) and the “resistant colonies on exposure” value (E. coli ATCC 25922 [10]) was “no resistant colonies”. For the same molecule, the “Topo IV decatenation inhibition response” value (E. coli topoisomerase IV; E. coli topo IV, compound 0.008 μM, source data Fig 2A, listed as 977, 0.008 µM) was 28.08 and 39.25, the inhibition at 0.008 µM (E. coli topoisomerase IV; E. coli topo IV, compound 0.008 μM, source data Fig 2A, read-out: Topo IV decatenation inhibition response) was 30.8% and the “Topo IV decatenation inhibition response” value (E. coli topoisomerase IV; E. coli topo IV, compound 0.074 μM, source data Fig 2A, listed as 977, 0.074 µM) was 89.53 and 79.92. The inhibition at 0.074 µM (E. coli topoisomerase IV; E. coli topo IV, compound 0.074 μM, source data Fig 2A, read-out: Topo IV decatenation inhibition response) was 75.6%, the “Topo IV decatenation inhibition response” value (E. coli topoisomerase IV; E. coli topo IV, compound 0.222 μM, source data Fig 2A, listed as 977, 0.222 µM) was 92.32 and 88.38 and the inhibition at 0.222 µM (E. coli topoisomerase IV; E. coli topo IV, compound 0.222 μM, source data Fig 2A, read-out: Topo IV decatenation inhibition response) was 83.4%. The “Topo IV decatenation inhibition response” value (E. coli topoisomerase IV; E. coli topo IV, compound 2 μM, source data Fig 2A, listed as 977, 2 µM) was 94.13 and 90.30, the inhibition at 2 µM (E. coli topoisomerase IV; E. coli topo IV, compound 2 μM, source data Fig 2A, read-out: Topo IV decatenation inhibition response) was 84.8% and the “higher inhibition potency compared to compound 17a” value (E. coli topoisomerase IV; E. coli topoisomerase IV) was ~ 20 fold. The IC50 (E. coli topoisomerase IV; read-out: IC50 E. coli topo IV decatenation) was 13 ± 4 nM, the IC50 (P. aeruginosa gyrase) was 9.4 nM and the “Gyrase supercoiling inhibition response” value (P. aeruginosa gyrase; compound 0.0005 μM, source data Fig 2B, listed as 977, 0.0005 µM) was 6.77. For the same molecule, the “Gyrase supercoiling inhibition response” value (P. aeruginosa gyrase; compound 0.001 μM, source data Fig 2B, listed as 977, 0.001 µM) was 9.59, the “Gyrase supercoiling inhibition response” value (P. aeruginosa gyrase; compound 0.004 μM, source data Fig 2B, listed as 977, 0.004 µM) was 27.41 and the “Gyrase supercoiling inhibition response” value (P. aeruginosa gyrase; compound 0.012 μM, source data Fig 2B, listed as 977, 0.012 µM) was 48.08. The “Gyrase supercoiling inhibition response” value (P. aeruginosa gyrase; compound 0.037 μM, source data Fig 2B, listed as 977, 0.037 µM) was 69.93, the “Gyrase supercoiling inhibition response” value (P. aeruginosa gyrase; compound 0.111 μM, source data Fig 2B, listed as 977, 0.111 µM) was 87.28 and the “Gyrase supercoiling inhibition response” value (P. aeruginosa gyrase; compound 0.333 μM, source data Fig 2B, listed as 977, 0.333 µM) was 93.63. For the same molecule, the “Gyrase supercoiling inhibition response” value (P. aeruginosa gyrase; compound 1 μM, source data Fig 2B, listed as 977, 1 µM) was 99.48, the “Gyrase supercoiling inhibition response” value (P. aeruginosa gyrase; compound 3 μM, source data Fig 2B, listed as 977, 3 µM) was 100.23 and the inhibition at 0.0005 µM (P. aeruginosa gyrase; read-out: Gyrase supercoiling inhibition response, P. aeruginosa gyrase, compound 0.0005 μM, source data Fig 2B) was 12.6%. The inhibition at 0.001 µM (P. aeruginosa gyrase; read-out: Gyrase supercoiling inhibition response, P. aeruginosa gyrase, compound 0.001 μM, source data Fig 2B) was 16.5%, the inhibition at 0.004 µM (P. aeruginosa gyrase; read-out: Gyrase supercoiling inhibition response, P. aeruginosa gyrase, compound 0.004 μM, source data Fig 2B) was 32.4% and the inhibition at 0.012 µM (P. aeruginosa gyrase; read-out: Gyrase supercoiling inhibition response, P. aeruginosa gyrase, compound 0.012 μM, source data Fig 2B) was 61.3%. The inhibition at 0.037 µM (P. aeruginosa gyrase; read-out: Gyrase supercoiling inhibition response, P. aeruginosa gyrase, compound 0.037 μM, source data Fig 2B) was 85.1%, the inhibition at 0.111 µM (P. aeruginosa gyrase; read-out: Gyrase supercoiling inhibition response, P. aeruginosa gyrase, compound 0.111 μM, source data Fig 2B) was 97.4% and the inhibition at 0.333 µM (P. aeruginosa gyrase; read-out: Gyrase supercoiling inhibition response, P. aeruginosa gyrase, compound 0.333 μM, source data Fig 2B) was 99%. For the same molecule, the inhibition at 1 µM (P. aeruginosa gyrase; read-out: Gyrase supercoiling inhibition response, P. aeruginosa gyrase, compound 1 μM, source data Fig 2B) was 99.8%, the inhibition at 3 µM (P. aeruginosa gyrase; read-out: Gyrase supercoiling inhibition response, P. aeruginosa gyrase, compound 3 μM, source data Fig 2B) was 103% and the MIC (S. aureus ATCC 29213) was 0.007 µg/mL (≈ 0.0149 µM). For the same molecule, the MIC [11] was 0.01 µg/mL (≈ 0.0213 µM).
